Measured values reported in article PMC3065929 (Journal of the American Chemical Society, 2011).

Key:
Assay type in all cases: biochemical
CoBPO [1] = target: T1, CoBPO (Corallina officinalis, UniProt Q8LLW7); assay: conversion to products
T1 sequence (Q8LLW7 1-598): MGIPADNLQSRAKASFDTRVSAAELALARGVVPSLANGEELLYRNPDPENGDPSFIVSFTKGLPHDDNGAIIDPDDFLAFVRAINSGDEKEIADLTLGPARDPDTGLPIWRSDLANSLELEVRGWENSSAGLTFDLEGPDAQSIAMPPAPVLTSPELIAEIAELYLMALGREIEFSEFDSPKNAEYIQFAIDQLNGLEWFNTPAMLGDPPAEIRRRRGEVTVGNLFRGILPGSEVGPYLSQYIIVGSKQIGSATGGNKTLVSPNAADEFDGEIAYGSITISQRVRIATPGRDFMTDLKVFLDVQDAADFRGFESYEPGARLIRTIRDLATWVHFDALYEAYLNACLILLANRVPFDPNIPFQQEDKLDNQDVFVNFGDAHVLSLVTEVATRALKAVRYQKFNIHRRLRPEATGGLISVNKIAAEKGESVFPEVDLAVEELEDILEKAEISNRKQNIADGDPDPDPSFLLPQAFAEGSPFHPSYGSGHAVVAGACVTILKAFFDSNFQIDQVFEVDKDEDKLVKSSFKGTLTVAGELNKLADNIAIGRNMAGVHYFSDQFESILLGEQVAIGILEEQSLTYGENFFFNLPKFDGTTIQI

NapH1 = target: T2, NapH1 (Streptomyces sp. CNQ-525, UniProt A7KH27); assay: HPLC assay of chlorination-cyclization; conditions: H2O2, chloride, pH 6; estimated, below detection limit of the assay
T2 sequence (A7KH27 42-527): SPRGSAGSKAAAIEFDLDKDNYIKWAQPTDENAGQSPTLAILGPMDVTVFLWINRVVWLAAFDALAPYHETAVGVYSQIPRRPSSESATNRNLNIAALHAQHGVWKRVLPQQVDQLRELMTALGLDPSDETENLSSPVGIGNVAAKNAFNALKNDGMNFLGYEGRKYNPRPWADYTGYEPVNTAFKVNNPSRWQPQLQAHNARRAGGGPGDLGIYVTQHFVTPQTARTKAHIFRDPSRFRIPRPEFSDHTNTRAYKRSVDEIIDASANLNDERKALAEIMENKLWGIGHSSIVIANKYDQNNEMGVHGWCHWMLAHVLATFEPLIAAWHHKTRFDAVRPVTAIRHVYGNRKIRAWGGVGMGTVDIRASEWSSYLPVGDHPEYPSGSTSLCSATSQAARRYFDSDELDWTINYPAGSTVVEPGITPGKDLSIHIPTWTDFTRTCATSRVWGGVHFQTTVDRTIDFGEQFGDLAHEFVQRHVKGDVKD

CoBPO [2] = target: T1, CoBPO; assay: spectrophotometric MCD bromination assay; conditions: H2O2, 0.2 M bromide, 30 °C

## CC(C)=CCC1=C(O)C(=O)c2ccccc2C1=O [lapachol, 4-hydroxy-3-(3-methylbut-2-enyl)naphthalene-1,2-dione]
CoBPO [1]
  conversion to products: CoBPO catalyzed the complete conversion of lapachol into numerous products

## CC(C)=CCC/C(C)=C/C[C@@]1(O)C(=O)c2cc(O)c(C)c(O)c2C(=O)[C@]1(Cl)CC=C(C)C [compound 3, SF2415B1]
NapH1
  Km: < 1 µM

## CC1(C)CC(=O)C(Cl)C(=O)C1 [monochlorodimedone]
CoBPO [2]
  spectrophotometric MCD bromination assay (290 nm): Corallina officinalis V-BPO (CoBPO) (below)
